The molecules below were run against human IDO1 (Homo sapiens, UniProt P14902) (assay: Assessment of human IDO-1 inhibitory activity in Hela cells (Interferon-gamma stimulated HeLa cells, Ehrlich reagent, absorbance 490 nm)). Conditions: Hela Human IDO-1 cellular assay.
Chain of human IDO1 (P14902 whole entry): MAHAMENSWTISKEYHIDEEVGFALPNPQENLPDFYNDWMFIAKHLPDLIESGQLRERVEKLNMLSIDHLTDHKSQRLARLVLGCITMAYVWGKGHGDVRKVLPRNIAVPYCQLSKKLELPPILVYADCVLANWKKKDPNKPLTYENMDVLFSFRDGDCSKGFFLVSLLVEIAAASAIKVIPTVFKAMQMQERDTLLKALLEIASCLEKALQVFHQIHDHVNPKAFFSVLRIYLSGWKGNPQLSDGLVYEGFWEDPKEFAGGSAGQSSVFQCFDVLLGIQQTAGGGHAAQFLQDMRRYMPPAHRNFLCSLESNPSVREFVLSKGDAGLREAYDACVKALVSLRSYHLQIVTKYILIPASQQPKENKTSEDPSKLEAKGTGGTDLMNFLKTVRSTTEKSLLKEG
Type: cell-based
Design: endogenous in cells; host or cells: HeLa cells stimulated with interferon-gamma
In short: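 IDO activity induced by 18 h IFN-γ (human 10 ng/ml or murine 5 ng/ml, final) after 1 h compound pre-treatment of HeLa cells at 37 °C. Supernatant kynurenine detected via Ehrlich reagent absorbance at 490 nm following 3% TCA at 50 °C; IC50 set against no-IFN-γ and untreated-stimulated controls.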
Molecule `CCOc1ncc(Nc2cc([C@@H](CC)CC(=O)O)ccc2N2C3CCC2CC(c2ccc(F)cc2)C3)cn1` (stereo partly drawn) [Example 1360, (S)-3-(3-((2-Ethoxypyrimidin-5-yl)amino)-4-(3-(4-fluorophenyl)-8-azabicyclo[3.2.1]octan-8-yl)phenyl)pentanoic acid] has an IC50 of less than 0.005 µM.
`CCC(CC(=O)O)c1ccc(N(CC)C2CCOC2)c(NC(=O)Nc2ccc(Cl)cc2F)c1` (single isomer, unassigned) [Example 946 D1, 3-(3-(3-(4-Chloro-2-fluorophenyl)ureido)-4-(ethyl(tetrahydrofuran-3-yl)amino)phenyl)pentanoic acid] was tested, and the IC50 was less than 0.05 µM.
`C[C@@H]1CN(c2ccc(C(CC(=O)O)C3CC3)cc2Nc2ccc(C#N)cc2)C[C@H](C)O1` (single isomer, unassigned) [Example 247] showed an IC50 greater than 0.05 µM.
Work on `CCOc1ncc(Nc2cc(C(CC)CC(=O)O)ccc2N(C)C2CCOCC2)cn1` (single isomer, unassigned) [Example 869, 3-(3-((2-ethoxy-pyrimidin-5-yl)amino)-4-(methyl (tetrahydro-2H-pyran-4-yl)amino)phenyl) pentanoic acid] yielded an IC50 of less than 0.05 µM.
In the case of “(R)-3-(4-((1,1-dioxidotetrahydro-2H-thiopyran-4-yl)(ethyl)amino)- 3-((2-ethoxypyrimidin-5- yl)amino)phenyl)-4- isopropoxybutanoic acid [Example 333]”, the IC50 is reported as greater than 0.05 µM.
In the case of `CCOc1ncc(Nc2cc(C(CC)CC(=O)O)ccc2N2CCN(C(=O)OC)CC2)cn1` (single isomer, unassigned) [Example 669, 3-(3-((2-Ethoxypyrimidin-5-yl)amino)-4-(4-(methoxycarbonyl)piperazin-1-yl)phenyl)pentanoic acid], the IC50 is reported as greater than 0.05 µM.
Work on “3-(4-((1,1-dioxidotetrahydro-2H- thiopyran-4-yl)(ethyl)amino)-3- ((4-fluorophenyl)amino)phenyl)- 4-isopropoxybutanoic acid [Example 340]” yielded an IC50 of less than 0.05 µM.
With `CCC(CC(=O)O)c1ccc(N2CCOCC2)c(Nc2ccc(C#N)cc2)c1` (single isomer, unassigned) [Example 6 Enantiomer 2, 3-(3-((4-Cyanophenyl)amino)-4-morpholinophenyl)pentanoic acid] the IC50 was less than 0.05 µM.
Work on `CCN(c1ccc([C@@H](COC)CC(=O)O)cc1NC(=O)Nc1ccc(Cl)cc1Cl)C1CCOCC1` (single isomer, unassigned) [Example 430] yielded an IC50 of less than 0.05 µM.
For `COCCN(c1ccc(C(C)(C)CC(=O)O)cc1NC(=O)Nc1ccc(Cl)cc1F)C1CCOCC1` [Example 20, 3-(3-(3-(4-chloro-2-fluorophenyl)ureido)-4-((2-methoxyethyl)(tetrahydro-2H-pyran-4-yl)amino)phenyl)-3-methylbutanoic acid], the IC50 was less than 0.05 µM.
`CCC(CC(=O)O)c1ccc(N2C[C@@H]3C[C@H]2CN3C(=O)OC)c(Nc2ccc(C#N)cc2)c1` (single isomer, unassigned) [Example 449] was tested, and the IC50 was less than 0.05 µM.
For `CCN(c1ccc([C@@H](COC)CC(=O)O)cc1Nc1ccc(C#N)c(C)c1)C1CCOCC1` (single isomer, unassigned) [Example 354], the IC50 was less than 0.05 µM.
Work on `CCCN(c1ccc([C@H](CC)CC(=O)O)cc1Nc1ccc(C#N)cc1)C1CCOCC1` (single isomer, unassigned) [Example 547] yielded an IC50 of less than 0.005 µM.
Molecule `COCC(CC(=O)O)c1ccc(N2CCOC(C)C2)c(NC(=O)Nc2ccc(Cl)cc2F)c1` (single isomer, unassigned) [Example 1314 D1, 3-(3-(3-(4-Chloro-2-fluorophenyl)ureido)-4-(2-methylmorpholino)phenyl)-4-methoxybutanoic acid] has an IC50 greater than 0.05 µM.
`CCC1COCCN1c1ccc([C@@H](COC)CC(=O)O)cc1Nc1ccc(Cl)cc1` (single isomer, unassigned) [Example 1300] showed an IC50 of less than 0.05 µM.
For `CCN(c1ccc(C(CC)(CC)CC(=O)O)cc1Nc1ccc(C#N)cc1)C1CCOCC1` [Example 27, 3-(3-((4-cyanophenyl)amino)-4-(ethyl(tetrahydro-2H-pyran-4-yl)amino)phenyl)-3-ethylpentanoic acid], the IC50 was less than 0.005 µM.
With `CCN(c1ccc(C(COC)CC(=O)O)cc1Nc1ccc(Cl)cc1)C1CCS(=O)(=O)CC1` (single isomer, unassigned) [Example 170, 3-(3-((4-chlorophenyl)amino)-4-((1,1-dioxidotetrahydro-2H-thiopyran-4-yl)(ethyl)amino)phenyl)-4-methoxybutanoic acid] the IC50 was less than 0.005 µM.
Work on `CCCN(c1ccc(C(C)(C)CC(=O)O)cc1Nc1ccc(C#N)cc1)C1CCOCC1` [Example 22, 3-(3-((4-cyanophenyl)amino)-4-(propyl(tetrahydro-2H-pyran-4-yl)amino)phenyl)-3-methylbutanoic acid] yielded an IC50 of less than 0.005 µM.
`CCC(CC(=O)O)c1ccc(N(CCOC)C2CCOCC2)c(NC(=O)Nc2ccc(Cl)cc2F)c1` (single isomer, unassigned) [Example 1265, 3-(3-(3-(4-chloro-2-fluorophenyl)ureido)-4-((2-methoxyethyl) (tetrahydro-2H-pyran-4-yl)amino)phenyl)pentanoic acid] showed an IC50 of less than 0.05 µM.
Work on `COCC(CC(=O)O)c1ccc(N(C)C2CCOCC2)c(NC(=O)Nc2ccc(Cl)cc2F)c1` (single isomer, unassigned) [Example 879, 3-(3-(3-(4-Chloro-2-fluorophenyl)ureido)-4-(methyl(tetrahydro-2H-pyran-4-yl)amino)phenyl)-4-methoxybutanoic acid] yielded an IC50 greater than 0.05 µM.
`CCOc1ccc(Nc2cc([C@H](CC)CC(=O)O)ccc2N(CC)C2CCOCC2)cn1` (single isomer, unassigned) [Example 509] showed an IC50 of less than 0.005 µM.
Work on `CCN(c1ccc([C@@H](COC)CC(=O)O)cc1Nc1ccc(C#N)cc1)C1CCOCC1` (stereo in doubt) [compound 349, 3-(3-((4-Cyanophenyl)amino)-4-(ethyl(tetrahydro-2H-pyran-4-yl)amino)phenyl)-4-methoxybutanoic acid] yielded an IC50 of less than 0.005 µM.
`CCN(c1ccc([C@@H](COC)CC(=O)O)cc1Nc1ccc(C#N)c(OCC(F)F)c1)C1CCOCC1` (single isomer, unassigned) [Example 371] was tested, and the IC50 was less than 0.05 µM.
Molecule `CCN(c1ccc([C@@H](COC)CC(=O)O)cc1Nc1cccc(C#N)c1)C1CCOCC1` (single isomer, unassigned) [Example 368] has an IC50 of less than 0.05 µM.
Work on `CCc1ncc(Nc2cc([C@@H](CC)CC(=O)O)ccc2N(CC)C2CCOCC2)cn1` (single isomer, unassigned) [Example 1362] yielded an IC50 of less than 0.005 µM.
Molecule `CCC(CC(=O)O)c1ccc(N(CC(F)F)C2CCOCC2)c(Nc2ccc(Cl)cc2)c1` (single isomer, unassigned) [Example 318 Enantiomer 1, 3-(3-((4-Chlorophenyl)amino)-4-((2,2-difluoroethyl)(tetrahydro-2H-pyran-4-yl)amino)phenyl)pentanoic acid] has an IC50 of less than 0.005 µM.
`CCOc1ncc(Nc2cc(C(CC)CC(=O)O)ccc2N2C[C@@H]3C[C@H]2CN3C(=O)OC(C)(C)C)cn1` (single isomer, unassigned) [Example 448] gave an IC50 greater than 0.05 µM.
`CCC1COCCN1c1ccc([C@@H](COC)CC(=O)O)cc1Nc1ccc(F)cn1` (single isomer, unassigned) [Example 1302] showed an IC50 greater than 0.05 µM.
Work on `CCC1COCCN1c1ccc([C@@H](COC)CC(=O)O)cc1Nc1ccc(C#N)cc1` (single isomer, unassigned) [Example 1281] yielded an IC50 greater than 0.05 µM.
In the case of `CCN(c1ccc([C@@H](COC)CC(=O)O)cc1Nc1ccc(C#N)c(F)c1)C1CCOCC1` (single isomer, unassigned) [Example 353], the IC50 is reported as less than 0.005 µM.
Molecule `CCN(c1ccc(C2(CC(=O)O)CCOCC2)cc1Nc1ccc(C#N)cc1)C1CCOCC1` [Example 154, 2-(4-(3-((4-cyanophenyl)amino)-4-(ethyl (tetrahydro-2H-pyran-4-yl)amino)phenyl)tetrahydro-2H-pyran-4-yl)acetic acid] has an IC50 of less than 0.05 µM.
`CCCN(c1ccc(C(C)(C)CC(=O)O)cc1Nc1cnc(OC)nc1)C1CCS(=O)(=O)CC1` [Example 189, 3-(4-((1,1-dioxidotetrahydro-2H-thiopyran-4-yl)(propyl)amino)-3-((2-methoxypyrimidin-5-yl)amino)phenyl)-3-methylbutanoic acid] gave an IC50 greater than 0.05 µM.

Source: patent US9790169B2, “IDO inhibitors” (BRISTOL-MYERS SQUIBB COMPANY, priority 2015, dated 2017)
